Test results as given in ChEMBL document CHEMBL1148685, “3,4-Dihydro-1H-[1,3]oxazino[4,5-c]acridines as a new family of cytotoxic drugs” (Bioorg Med Chem Lett, 2006).
The source made the active and inactive calls. No cut-off for these calls is given here.

What was measured:
Assay type in all cases: functional, cell-based
Details in all cases: Homo sapiens
HT-29 [1] = assay: Cytotoxicity against HT29 cell line
HT-29 [2] = assay: Cytotoxicity against HT29 cells in presence of Escherichia coli nitroreductase
HT-29 [3] = assay: Cytotoxicity against HT29 cells in hypoxic condition after 5 hrs

| Structure (SMILES) | IC50 (HT-29 [1]) [µM] | IC50 (HT-29 [2]) [µM] | Activity (HT-29 [3]) |
| --- | --- | --- | --- |
| c1ccc(COCC2Nc3ccc4cc5ccccc5nc4c3CO2)cc1 (stereo not given) | 4 | – | – |
| CC1Nc2ccc3cc4ccccc4nc3c2CO1 (stereo not given) | 0.6 | – | – |
| ClCC1Nc2ccc3cc4ccccc4nc3c2CO1 (stereo not given) | 1.25 | – | – |
| COc1cccc2c1C(=O)c1c(O)c3c(c(O)c1C2=O)C[C@@](O)(C(=O)CO)C[C@@H]3O[C@H]1C[C@H](N)[C@H](O)[C@H](C)O1 [DOXORUBICIN] | 2.37 | – | – |
| BrCC1Nc2ccc3cc4ccccc4nc3c2CO1 (stereo not given) | 1.25 | – | – |
| c1ccc2nc3c4c(ccc3cc2c1)NCOC4 | 2.25 | – | – |
| c1ccc(C2Nc3ccc4cc5ccccc5nc4c3CO2)cc1 (stereo not given) | 0.4 | – | – |
| O=[N+]([O-])c1ccc(C2Nc3ccc4cc5ccccc5nc4c3CO2)cc1 (stereo not given) | 2.3 | 0.2 | inactive |
